# Test results from ChEMBL document CHEMBL1136093, “A four component coupling strategy for the synthesis of D-phenylglycinamide-derived non-covalent factor Xa inhibitors” (Bioorg Med Chem Lett, 2003).
# Species: Homo sapiens
# Assay: Concentration required to double the time of clot formation in reconstituted human plasma, using prothrombin time assay
# Type: functional, organism-based
row,SMILES,Concentration [µM]
1,O=C(NC(C(=O)NCC1CCN(C2CCCC2)CC1)c1cccc2ccccc12)c1ccc2c(Cl)c[nH]c2c1 (stereo not drawn),3.8
2,O=C(NC(C(=O)NCC1CCN(C2CCCC2)CC1)c1ccc2ccccc2c1)c1ccc2c(Cl)c[nH]c2c1 (stereo not drawn),4.1
3,O=C(NC(C(=O)NCC1CCN(C2CCCC2)CC1)c1nccs1)c1ccc2c(Cl)c[nH]c2c1 (stereo not drawn),0.79

# Molecular target: Coagulation factor X (Homo sapiens) (UniProt P00742)
# Sequence (P00742 41-179 limits assumed): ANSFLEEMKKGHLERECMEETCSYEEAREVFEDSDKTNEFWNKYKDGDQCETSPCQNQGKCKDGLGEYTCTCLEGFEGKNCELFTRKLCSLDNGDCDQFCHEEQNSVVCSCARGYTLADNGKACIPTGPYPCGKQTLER
# Sequence (P00742 235-488 limits assumed): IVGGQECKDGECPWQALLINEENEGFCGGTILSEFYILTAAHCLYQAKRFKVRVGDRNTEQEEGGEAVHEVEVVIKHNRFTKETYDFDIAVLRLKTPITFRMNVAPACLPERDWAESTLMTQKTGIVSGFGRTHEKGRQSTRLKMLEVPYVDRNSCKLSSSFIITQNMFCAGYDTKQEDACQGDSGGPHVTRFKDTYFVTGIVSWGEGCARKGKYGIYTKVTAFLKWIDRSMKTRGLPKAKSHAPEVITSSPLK
# Assay: Binding ability to coagulation factor Xa, expressed as apparent association constant
row,SMILES,K ass
1,COc1ccc(C(=O)NC(C(=O)NCC2CCN(C(C)C)CC2)c2ccccc2N(C)C)cc1 (stereo not drawn),1.1e+06 l M-1
2,O=C(NC(C(=O)NCC1CCN(C2CCCC2)CC1)c1cccc2ccccc12)c1ccc2c(Cl)c[nH]c2c1 (stereo not drawn),2.5e+08 l M-1
3,COc1ccc(C(=O)NC(C(=O)NCC2CCN(C(C)C)CC2)c2ccoc2)cc1 (stereo not drawn),200000 l M-1
4,COc1ccc(C(=O)NC(C(=O)NCC2CCN(C(C)C)CC2)c2ccccc2Oc2ccccc2)cc1 (stereo not drawn),1.3e+06 l M-1
5,COc1ccc(C(=O)NC(C(=O)NCC2CCN(C(C)C)CC2)c2ccccc2C)cc1 (stereo not drawn),2.5e+06 l M-1
6,O=C(NC(C(=O)NCC1CCN(C2CCCC2)CC1)c1ccc2ccccc2c1)c1ccc2c(Cl)c[nH]c2c1 (stereo not drawn),7.9e+07 l M-1
7,CCOc1ccccc1C(NC(=O)c1ccc(OC)cc1)C(=O)NCC1CCN(C(C)C)CC1 (stereo not drawn),2.8e+06 l M-1
8,COc1ccc(C(=O)NC(C(=O)NCC2CCN(C(C)C)CC2)c2ccccc2Cl)cc1 (stereo not drawn),5.1e+06 l M-1
9,COc1ccc(C(=O)NC(C(=O)NCC2CCN(C(C)C)CC2)c2ccccc2OC)cc1 (stereo not drawn),1.9e+06 l M-1
10,COc1ccc(C(=O)NC(C(=O)NCC2CCN(C(C)C)CC2)c2ccnc3ccccc23)cc1 (stereo not drawn),1.3e+06 l M-1
11,COc1ccc(C(=O)NC(C(=O)NCC2CCN(C(C)C)CC2)c2ccccc2C(F)(F)F)cc1 (stereo not drawn),3.1e+06 l M-1
12,O=C(NC(C(=O)NCC1CCN(C2CCCC2)CC1)c1cnc2ccccc2c1)c1ccc2c(Cl)c[nH]c2c1 (stereo not drawn),200000 l M-1
13,COc1ccc(C(=O)NC(C(=O)NCC2CCN(C(C)C)CC2)c2ccccc2I)cc1 (stereo not drawn),4.1e+06 l M-1
14,COc1ccc(C(=O)NC(C(=O)NCC2CCN(C(C)C)CC2)c2ncc[nH]2)cc1 (stereo not drawn),210000 l M-1
15,COc1ccc(C(=O)NC(C(=O)NCC2CCN(C(C)C)CC2)c2ccccc2OCc2ccccc2)cc1 (stereo not drawn),2.6e+06 l M-1
16,COc1ccc(C(=O)NC(C(=O)NCC2CCN(C(C)C)CC2)c2ccccc2SC)cc1 (stereo not drawn),2.9e+06 l M-1
17,COc1ccc(C(=O)NC(C(=O)NCC2CCN(C(C)C)CC2)c2ccccc2O)cc1 (stereo not drawn),1.3e+06 l M-1
18,COc1ccc(C(=O)NC(C(=O)NCC2CCN(C(C)C)CC2)c2ccccc2Br)cc1 (stereo not drawn),4.6e+06 l M-1
19,COc1ccc(C(=O)NC(C(=O)NCC2CCN(C(C)C)CC2)c2ccccc2F)cc1 (stereo not drawn),2e+06 l M-1
20,COc1ccc(C(=O)NC(C(=O)NCC2CCN(C(C)C)CC2)c2ccco2)cc1 (stereo not drawn),360000 l M-1
21,COc1ccc(C(=O)NC(C(=O)NCC2CCN(C(C)C)CC2)c2ccccc2OC(F)(F)F)cc1 (stereo not drawn),4.1e+06 l M-1
22,COc1ccc(C(=O)NC(C(=O)NCC2CCN(C(C)C)CC2)c2cnc3ccccc3c2)cc1 (stereo not drawn),50000 l M-1
23,COc1ccc(C(=O)NC(C(=O)NCC2CCN(C(C)C)CC2)c2cccs2)cc1 (stereo not drawn),1.1e+06 l M-1
24,COc1ccc(C(=O)NC(C(=O)NCC2CCN(C(C)C)CC2)c2ccccc2[N+](=O)[O-])cc1 (stereo not drawn),4.2e+06 l M-1
25,COc1ccc(C(=O)NC(C(=O)NCC2CCN(C(C)C)CC2)c2ccccc2SC(C)(C)C)cc1 (stereo not drawn),1.7e+06 l M-1
26,COc1ccc(C(=O)NC(C(=O)NCC2CCN(C(C)C)CC2)c2ccccc2N)cc1 (stereo not drawn),750000 l M-1
27,COc1ccc(C(=O)NC(C(=O)NCC2CCN(C(C)C)CC2)c2ccsc2)cc1 (stereo not drawn),880000 l M-1
28,O=C(NC(C(=O)NCC1CCN(C2CCCC2)CC1)c1nccs1)c1ccc2c(Cl)c[nH]c2c1 (stereo not drawn),3.8e+08 l M-1
29,COc1ccc(C(=O)NC(C(=O)NCC2CCN(C(C)C)CC2)c2ccccc2)cc1 (stereo not drawn),710000 l M-1
30,O=C(N[C@@H](C(=O)NCC1CCN(C2CCCC2)CC1)c1ccccc1)c1ccc2c(Cl)c[nH]c2c1,8.2e+08 l M-1
